Laboratory results from ChEMBL document CHEMBL1130428, “Design, synthesis, and cocrystal structure of a nonpeptide Src SH2 domain ligand” (J Med Chem, 1997).
pIC50: −log10 of the molar value.

Target: Tyrosine-protein kinase transforming protein Src (Rous sarcoma virus)
Assay: Inhibition of [125I]phosphopeptide binding to Src SH2 domain.

CC[C@H](C)[C@H](NC(=O)[C@H](CCC(=O)O)NC(=O)[C@H](CCC(=O)O)NC(=O)[C@@H](CC(=O)O)Cc1ccc(OP(=O)(O)O)cc1)C(=O)N[C@@H](CCC(=O)O)C(=O)O
pIC50: 6.40

CN(CCCC1CCCCC1)C(=O)[C@H](CCC(=O)O)NC(=O)NCc1ccc(OP(=O)(O)O)cc1
pIC50: 4.92
